Patent publication US11939617B2, “Functionally modified polypeptides and radiobiosynthesis” (Ikaria Inc., priority 2016, dated 2024)
pKd: −log10 of the molar value.

Tests used:
HSA = HSA (Homo sapiens, UniProt P02768); experiment: chromatographic assay of HSA binding; conditions: for pKd: chromatographic HSA binding assay (Hage)
Text: To assess albumin binding, any assay designed to measure albumin binding can be used. Chromatographic binding assays are especially useful, such as that described by Hage, D S, et al. J (Chromatogr B Biomed Sci Appl. 2000, 739:39-54). Alternatively or in conjunction, binding affinity to albumin can be determined by using surface plasmon resonance. In one method, a BIAcore 200 device (BIAcore Inc.; Piscataway, NJ) is used in combination with a procedure by Lacy, S E, et al. (MAbs, 2015. 7:605-19) as modified herein. Briefly, human and mouse albumin are captured on a CM5 chip using amine coupling at 5000 resonance units. The candidate polypeptides are injected at various concentrations (e.g., 0, 0.625, 1.25, 5, and 10 μM) at a controlled flow rate (e.g., 20 μl/min). The bound peptides are allowed to dissociate for a period of time (e.g., 5 min) before matrix regeneration using 10 mM glycine, pH 3. The signal from an injection passing over an uncoupled cell is subtracted from that of an immobilized cell to generate sensorgrams of the amount of polypeptide bound as a function of time. BIAcore kinetic evaluation software (version 3.1) can be used to determine KD from the association and dissociation rates using a one-to-one binding model. Alternatively or in conjunction, affinity to albumin can be determined using a direct assay, such as described by Nguyen, A, et al. (Protein Eng Des Sel. 2006, 19:291-7). In this method, albumin is immobilized onto high protein-binding capacity polystyrene 96 well plates at a predetermined concentration, such as 2 mg/ml, for a period of time (e.g., overnight) at 4° C. Non-specific binding sites are blocked with binding buffer, and radio-labelled candidate polypeptides are applied to the plates for a period of time, such as 30 minutes, at 25° C. Unbound candidate polypeptides are washed away, and bound candidate polypeptides detected using a radioactivity plate reader.
The two non-natural amino acids (nnAAs 1 and 2; FIG. 1) were synthesized from the corresponding NHS-esters by standard conjugation chemistry (FIG. 1). […]

[1] = test system: amber nonsense codon in GFPUV-149UAG, PylRS mutant/tRNACUA^Pyl; experiment: amber suppression in GFP by PylRS mutant in E. coli, fluorescence plate reader; type: cell-based; conditions: medium with 1 mM nnAA versus control LB medium, best hit from the library
Text: Since many PylRS mutants have broad substrate specificity, we first screened only a small library of 22 previously evolved PylRS mutants for their ability to incorporate 1 and 2 into green fluorescence protein (GFP) in E coli. The screening was based on the suppression of an amber nonsense codon at a permissive site in a GFP-encoding gene. Briefly, a plasmid, pLei-GFPUV-N149UAG, which contains GFPUV-149UAG and a copy of a tRNACUA^Pyl, was co-transformed into E. coli GeneHogs strain with a plasmid containing a variant of PylRS mutant. Protein expression was carried out in control LB medium and in medium supplemented with 1 mM 1 or 2. After induction of GFP expression and cultivation (12 h), cells were collected, washed, and analyzed using a fluorescence plate reader.

[2] = daily subcutaneous injection, 70-100 mg, 1-2 mg/kg; cited from earlier work

Sequence of HSA (P02768 25-609): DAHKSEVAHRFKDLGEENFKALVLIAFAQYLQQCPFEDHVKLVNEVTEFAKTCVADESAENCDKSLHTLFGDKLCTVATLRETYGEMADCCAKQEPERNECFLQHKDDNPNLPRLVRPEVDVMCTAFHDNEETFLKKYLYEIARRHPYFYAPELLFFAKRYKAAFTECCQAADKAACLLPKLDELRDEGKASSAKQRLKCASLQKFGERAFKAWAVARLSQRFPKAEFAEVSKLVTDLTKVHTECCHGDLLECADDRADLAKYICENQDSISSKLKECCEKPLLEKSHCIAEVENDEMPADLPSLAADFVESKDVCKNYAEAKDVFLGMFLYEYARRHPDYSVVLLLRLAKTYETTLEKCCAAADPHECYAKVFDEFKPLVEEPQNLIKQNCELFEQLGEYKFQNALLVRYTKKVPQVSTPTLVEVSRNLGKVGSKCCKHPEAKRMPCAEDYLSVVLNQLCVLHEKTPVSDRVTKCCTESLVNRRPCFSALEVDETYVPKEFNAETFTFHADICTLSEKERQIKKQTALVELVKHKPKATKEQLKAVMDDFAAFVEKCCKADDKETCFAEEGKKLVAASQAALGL

Compound	pKd (HSA)	albumin binding (HSA; statement in words)	full-length GFPUV production (fluorescence) [1]	time of peak serum concentration after injection [2] [h]
N[C@@H](CCCCNC(=O)CCCc1ccc(I)cc1)C(=O)O [compound 1]	5.15			
N[C@@H](CCCCNC(=O)CCc1ccc(I)cc1)C(=O)O [nnAA 2, Nε-(3-(4-iodophenyl)propanoyl)lysine]	3.69	binds albumin poorly	significantly more full-length GFPUV proteins were produced	
anakinra: 17 kD therapeutic protein currently prescribed for the treatment of rheumatoid arthritis				~6
